A short description of the series: gradient 5% acetonitrile 3 min, to 50% in 2 min, to 85% in 15 min, held 3 min, 100 µL/min. The note with it: column: Zorbax Extend-C18 2.1 x 50 mm; eluents: water / acetonitrile, 0.1% formic acid. Put shortly: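 Pure standards were analyzed in mixtures of ~100 molecules using HPLC coupled to a quadrupole time-of-flight mass spectrometer, in both positive and negative ionization mode. Separation used a Zorbax Extend-C18 column (2.1 × 50 mm, 1.8 μm) at 100 μL/min, with water and acetonitrile each containing 0.1% formic acid. Dead and dwell volumes were 40 μL and 900 μL, and data were collected over 3 months. Retention time was read from computationally picked adduct peaks, each inspected manually.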
The compound `Cc1nn(-c2cc(N3CCCC3)ncn2)c(C)c1CCC(=O)NCc1ccc2c(c1)OCO2` gave an RP-LC retention time of 921 s. To `O=S(=O)(Nc1ccc(N2CCOCC2)cc1)c1ccc(-c2nnc(C3CCC3)o2)o1` belongs 828 s. To `COC(=O)c1ncn2c1C(=O)N(c1ccc(C)cc1C)C(C)(C(=O)NCc1ccccc1)C2` (stereo not given) belongs 726 s; to `Cc1ccc(NC(=O)N2CCC3(CC2)NC(=O)c2ccccc2O3)cc1`, 762 s; to `COc1ccc2c(c1)C1(CCN(C(=O)COc3ccccc3)C1)C(=O)N2C` (stereo not given), 791 s. The figure for `COc1ccc(-c2nnc(COc3ccc(NC(=O)Cc4cccs4)cc3)o2)cc1` is 900 s. Turning to `Cc1ccc(NC(=O)Nc2ccc3c(c2)CCN3S(=O)(=O)c2ccccc2)cc1C`, the RP-LC retention time is 1030 s. The compound `CC1CCCCN1CCCNC(=O)CCCn1c(=O)c2cccn2c2ccccc21` (stereo not given) had an RP-LC retention time of 627 s.

As to `O=C(NCC1OCCc2ccccc21)C(=O)Nc1ccc(Br)cc1` (stereo not given), the RP-LC retention time is 1070 s.

The compound `CCNC(=O)N1CCN(CCCC(c2ccc(F)cc2)c2ccc(F)cc2)CC1` yielded an RP-LC retention time of 766 s. The figure for `COC(=O)c1c(C)[nH]c(C(=O)N2CCC(CC(=O)NC(C)C)CC2)c1C` is 663 s; for `Cc1cnc(-c2ccccc2)n1CCNS(=O)(=O)c1ccccc1` it is 629 s; for `COc1ccc2c(c1)C=C(C(=O)NCc1ccccc1)C=CO2` it is 940 s.

`Brc1cccc(-c2nc3cnccn3c2NC2CCCCC2)c1` had an RP-LC retention time of 1130 s. `Cc1ccccc1-c1nc(-c2cccc(-c3ccn[nH]3)c2)no1` returned an RP-LC retention time of 1080 s. In turn, `Fc1ccc(CN2CCO[C@@H](COc3ccccn3)[C@@H]2c2ccccc2)c(F)c1` returned an RP-LC retention time of 894 s. For the compound `O=C(NC1CCCC1)c1ccc(-c2cccs2)nc1`, the RP-LC retention time turned out to be 849 s. The figure for `O=C(COc1ccccc1)NCCS(=O)(=O)N1CCN(c2cccc(Cl)c2)CC1` is 926 s. The figure for `O=C(CN1CC=C(c2cnn(-c3ccc(F)cc3)c2)CC1)NCC1CCCO1` (stereo not given) is 628 s; for `Cc1cc(NC(=O)Cn2c(C)cc(-c3nnc(C4CCC4)o3)c2C)ccc1F` it is 934 s; for `CC(=O)Nc1ccc2c(c1)CN(C(=O)c1ccc(C#N)cc1)C(C(=O)N(C)C)C2` (stereo not given) it is 619 s. The figure for `O=C(Nc1ccccc1)C(=O)c1cn(CC(=O)N2CCOCC2)c2ccccc12` is 860 s.

The compound `CCc1ccc(NS(=O)(=O)c2cc3[nH]c(=O)[nH]c3cc2C)cc1` showed an RP-LC retention time of 719 s. On to `Cc1cnc(C2CN(Cc3ccccn3)C2)n1CC1CC1`, for which the RP-LC retention time was 538 s. `O=C(COc1ccccc1)Nc1nc(-c2ccccc2)cs1` returned an RP-LC retention time of 1050 s. The figure for `Cc1nc(-c2cccc(F)c2)sc1CCNC(=O)Nc1ccc2c(c1)OCO2` is 817 s. Compound `Cc1ccc(CNC(=O)C2CCCN(c3nnc(C)c4c(C)n(-c5ccc(Cl)cc5)nc34)C2)cc1` (stereo not given) had an RP-LC retention time of 784 s.

`Cn1nnnc1C1CCCN(S(=O)(=O)Cc2ccccc2)C1` (stereo not given): the RP-LC retention time is 751 s. The figure for `COc1cccc(N2CCN(C(=O)C3CCCN(c4nc5ncccc5n5cccc45)C3)CC2)c1` (stereo not given) is 696 s; for `Cc1ccc(NC(=O)C2CCN(S(=O)(=O)c3cc(C(=O)N4CCCCCC4)cs3)CC2)nc1` it is 754 s.

For the compound `Cc1ccc(S(=O)(=O)N2CCCC(CCC(=O)N3CCOCC3)C2)cc1` (stereo not given), the RP-LC retention time turned out to be 814 s.

Compound `CCc1ccc(NC(=O)C2CCN(S(=O)(=O)c3cc(-c4noc(CC)n4)cs3)CC2)cc1` registered an RP-LC retention time of 660 s.

`O=C(NS(=O)(=O)c1ccc(F)cc1)c1ccccc1`: the RP-LC retention time was 744 s. The compound `COC(=O)c1cccc(N2C=C(C#N)S(=O)(=O)c3cc(F)ccc32)c1` showed an RP-LC retention time of 872 s. To `CCC(=O)N1CCN(c2nc(CC(C)C)c3c(c2C#N)CC(C)(C)OC3)CC1` belongs 1110 s.

`O=C(NCCc1c[nH]c2ccc(Cl)cc12)c1cn2cc(Cl)ccc2n1`: the RP-LC retention time amounted to 886 s. For `O=C(Nc1ccc(F)c(F)c1)C1CCN(c2cc(N3CCSCC3)ncn2)CC1`, the RP-LC retention time is 709 s. To `CC1CCN(c2ccc(C(=O)NCC3CCCO3)cc2S(=O)(=O)N2CCC(C)CC2)CC1` (stereo not given) belongs 1170 s; to `O=C(NCC1CCN(C(=O)Nc2ccc(F)cc2)CC1)c1ccsc1`, 682 s; to `CC(C)CNC(=O)NCCC1CCN(S(=O)(=O)c2ccc(F)cc2)CC1`, 824 s.

Take `CN(C)CC[C@@H](c1ccc(Cl)cc1)c1ccccn1`: the RP-LC retention time was determined as 659 s. The figure for `Cc1csc(-c2cc(S(=O)(=O)NC3CC3)cn2CC(=O)N2CCCCC2)n1` is 841 s; for `O=C(Nc1nnc(-c2ccc(Cl)s2)o1)c1ccc(S(=O)(=O)N2CCCC2)cc1` it is 814 s; for `O=C(NC1CCCC1)C1CCCN(S(=O)(=O)Cc2ccccc2Cl)C1` (stereo not given) it is 915 s.

With `Cc1nc2n(c(=O)c1C)CCN2CC(=O)NCc1cccs1`, the RP-LC retention time is 619 s. The figure for `CC(C)CNC(=O)c1cn(-c2ccc(NC(=O)C(C)C)cn2)cn1` is 702 s.

In turn, `Cc1ccc(-c2csc(-c3cccn3CC(=O)N(C)Cc3ccco3)n2)cc1` came in with an RP-LC retention time of 1170 s.

With `COc1ccccc1/C=C/c1nc(-c2cccc(-c3ccnn3C)c2)no1`, the RP-LC retention time was determined as 1200 s. To `COc1cccc(CN2C[C@@H]3C(=O)N(CCCN4CCCC4=O)C(=O)[C@@H]3C2)c1` belongs 598 s. Compound `CCc1ccc(-n2ncc3c(=O)n(Cc4nc(-c5ccc(OC)cc5)no4)cnc32)cc1` displayed an RP-LC retention time of 1120 s. To `CCCN(C)c1nccnc1OC1CCN(C(=O)CC(C)C)C1` (stereo not given) belongs 835 s; to `CC(C)CC(=O)N1CCC2(CC1)c1nccn1-c1ccccc1CN2C`, 580 s; to `Cn1nc(-c2nnc(-c3ccc(F)cc3)o2)c2c1CCN(S(=O)(=O)c1cccc(F)c1)C2`, 963 s.

As to `CCOc1ccc(NC(=O)N2CCc3cn(CC)c4cccc(c34)C2)cc1`, the RP-LC retention time was 952 s. The figure for `COc1ccc(-c2noc(-c3cccnc3N3CCN(c4ccccc4)CC3)n2)cc1` is 1290 s; for `CCc1nn2c(CNC(=O)c3cccc(Cl)c3)c(-c3ccccc3)nc2s1` it is 998 s; for `CCN(CC)S(=O)(=O)c1ccc2c(c1)CC(C(=O)NC1CCCCC1)N2C(C)=O` (stereo not given) it is 839 s. The figure for `Cc1ccccc1NC(=O)c1csc(-c2cn(C)c3ncccc23)n1` is 1020 s.

As for `CCc1nccn1Cc1noc(-c2ccc(C)c(C)c2)n1`, the RP-LC retention time worked out at 672 s. The figure for `CC1CCC2(CC1)NC(=O)N(CC(=O)NCc1ccccc1)C2=O` (stereo not given) is 784 s.

In turn, `CCCN1CCN(S(=O)(=O)c2cc(-c3[nH]ncc3C(=O)N(C)C)oc2C)CC1` gave an RP-LC retention time of 566 s.

The compound `O=C(NCCn1nnc2cc(C(=O)N3CCCCC3)ccc21)NC1CCCCC1` gave an RP-LC retention time of 707 s. The figure for `Cc1ccc(S(=O)(=O)N2CCn3c(nn(CC4CC4)c3=O)C2)c(C)c1` is 809 s; for `COc1ccccc1-c1csc(-c2nnn(-c3ccc(F)cc3)c2N)n1` it is 1070 s.

`Cc1ccc(N2CCC(NC(=O)c3ccc(C(F)(F)F)cc3)C2=O)cc1` (stereo not given) returned an RP-LC retention time of 953 s. The figure for `O=C(NCC1CCCO1)C(=O)Nc1ccc(OC(F)(F)F)cc1` (stereo not given) is 834 s; for `c1nn2cnnc2cc1N1CCN(Cc2csc3c2CCCC3)CC1` it is 609 s.

`O=C(NCCNC(=O)c1ccc(N2CCOCC2)nn1)c1ccc(NC(=O)C2CC2)cc1` returned an RP-LC retention time of 599 s. `CC(C)NC(=O)c1ccc(OCC2CCCN2C(=O)c2ccoc2)cc1` (stereo not given) showed an RP-LC retention time of 747 s. To `COC(=O)c1c(-c2ccc(Cl)cc2)noc1N1CCN(c2ccccn2)CC1` belongs 1000 s. `COc1ccc(NC(=O)N2[C@H]3CC[C@@H]2c2cnc(-c4ccc(F)cc4)nc2C3)c(OC)c1`: the RP-LC retention time worked out at 961 s. To `COc1ccc(Cc2nc(-c3ccc4oc(C)nc4c3)no2)c(Cl)c1` belongs 1060 s; to `Cn1cccc1C(=O)C(=O)NCCc1ccc(Cl)cc1`, 939 s; to `CCOC(=O)c1ccccc1NC(=O)Cn1c(=O)n(-c2ccc(F)cc2)c(=O)c2c1cc(C)n2C`, 1010 s. The figure for `O=C(Nc1ccccc1SCc1nnc(-c2ccccc2)o1)c1ccc(Br)o1` is 1040 s; for `COc1ccc2nc(-n3nc(C)cc3NC(=O)c3ccc([N+](=O)[O-])o3)sc2c1` it is 1220 s; for `O=C(COc1ccccc1-c1nnc(-c2ccccc2)o1)NCc1ccco1` it is 961 s. The figure for `O=C(NCCCN1CCOC(c2ccccc2)C1)c1ccc(Cl)cc1Cl` (stereo not given) is 599 s; for `O=C(O)c1ccc(Nc2c(-c3cccc(O)c3)nc3cnccn23)cc1` it is 620 s; for `Clc1ccc(-c2nc(N3CCN(c4ccccn4)CC3)c3ccccc3n2)cc1` it is 618 s.
